Measured values: article PMC9926234, “Iterative computational design and crystallographic screening identifies potent inhibitors targeting the Nsp3 macrodomain of SARS-CoV-2” (Proceedings of the National Academy of Sciences of the …, 2023)
“And” between values parts separate entries of the source, which are not always exact repeats. Identical values can stand only once. Like-named read-outs stand apart in the source and are kept apart here.

Assays:
[1] = molecular target: T1, SARS-CoV-2 NSP3 Mac1 (Severe acute respiratory syndrome coronavirus 2, UniProt P0DTD1); set-up: contains a conserved macrodomain enzyme (Mac1); Differential scanning fluorimetry of Mac1, maximum thermal upshift; details: maximum shift over tested concentrations; binder
[2] = molecular target: T2, MacroD2 (Homo sapiens, UniProt A1Z1Q3); assay: adapted HTRF-based peptide displacement assay (off-target); assay type: binding
T2 construct: MacroD2_HTRF; HTRF assay; pET22b(+); His6, TEV, Avi; made in house
T2 sequence (A1Z1Q3 with tags, fused parts or gaps): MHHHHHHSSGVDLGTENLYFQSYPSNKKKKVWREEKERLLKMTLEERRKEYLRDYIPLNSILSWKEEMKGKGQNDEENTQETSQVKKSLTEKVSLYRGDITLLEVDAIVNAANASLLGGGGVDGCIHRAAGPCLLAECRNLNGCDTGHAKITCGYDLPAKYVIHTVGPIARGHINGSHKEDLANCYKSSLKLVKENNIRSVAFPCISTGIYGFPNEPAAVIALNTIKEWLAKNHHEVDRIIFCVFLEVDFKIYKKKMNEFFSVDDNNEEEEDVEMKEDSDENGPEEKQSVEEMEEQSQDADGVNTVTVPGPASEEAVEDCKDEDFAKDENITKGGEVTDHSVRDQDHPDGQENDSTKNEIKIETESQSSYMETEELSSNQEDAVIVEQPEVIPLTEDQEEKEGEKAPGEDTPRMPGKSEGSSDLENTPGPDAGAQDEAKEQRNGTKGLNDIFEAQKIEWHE

[3] = molecular target: T3, TARG1 (Homo sapiens, UniProt Q9Y530); assay: as above; assay type: binding
T3 construct: Targ1_HTRF; HTRF assay; pET22b(+); His6, TEV; 1-153; made in house
T3 sequence (Q9Y530 with tags, fused parts or gaps): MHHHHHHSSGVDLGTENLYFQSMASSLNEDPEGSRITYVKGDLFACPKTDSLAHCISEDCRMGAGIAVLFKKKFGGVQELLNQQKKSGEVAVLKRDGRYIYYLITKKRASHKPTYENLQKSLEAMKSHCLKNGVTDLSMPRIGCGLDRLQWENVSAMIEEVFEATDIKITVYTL

[4] = molecular target: T1, SARS-CoV-2 NSP3 Mac1; assay type: binding; details: for 1-BDC / PanDDA hit? / Modeled?: crystal soak; for 1-BDC (PanDDA): 1 minus background density correction; for 1-BDC (PanDDA) / Refined occupancy: crystal soaking of Mac1; for Refined occupancy: ligand occupancy after refinement (phenix.refine)
[5] = molecular target: T1, SARS-CoV-2 NSP3 Mac1; assay: biochemical; assay type: binding; details: for Ki: read-out: Ki***
[6] = system: SARS-CoV-2 NSP3 Mac1; assay: Overall hit call (binding in crystallographic soaking or the HTRF-based binding assay)
Text: Supplement pnas.2212931120.sd01.xlsx, sheet "Compound Summary" | column: HIT*

[7] = PanDDA event map background density correction, compound concentration 100 mM
[8] = ligand modeled in the crystal structure, compound concentration 100 mM
[9] = HTRF ADPr-conjugated peptide displacement, read-out: IC50

Nc1ncnc(N2CCCC(CCC(=O)O)C2)c1Cl (stereo not shown) [R6134, REAL250003296134]
DSF max dTma [1]: 0.34 °C

Cc1nnc(CNc2cnc(N)c(Cl)n2)n1C1CC1 [Z1964, ZINC000893101964]
DSF max dTma [1]: 0.12 °C

O=C(Cc1ccc(-n2cccn2)cc1)OCC1CCCNC1=O (stereo not shown) [Z5505, ZINC000835985505]
DSF max dTma [1]: 0.16 °C

c1csc(CC2CCN(c3ncnc4[nH]ccc34)C2)n1 (stereo not shown) [Z6891, ZINC000897286891]
DSF max dTma [1]: 0.15 °C

OCc1cn(C2CCCN(c3ncnc4[nH]ccc34)C2)nn1 (stereo not shown) [Z7864, ZINC000292637864]
DSF max dTma [1]: 0.32 °C

Cc1nnc2n1CC(C(=O)O)N(C(=O)c1ccc(NC(=O)NC3CC3)cc1)C2 (stereo not shown) [Z8539_0037, 8539_0037]
DSF max dTma [1]: 2.36 °C

NC(=O)Nc1ccc(C(=O)NC2c3cccc(O)c3CC2C(=O)O)cc1 (stereo not shown) [Z8539_0041, 8539_0041]
DSF max dTma [1]: 6 °C

O=C(Nc1ccc(C(=O)NC2c3cccc(O)c3CC2C(=O)O)c(O)c1)NC1CC1 (stereo not shown) [Z8539_0072]
displacement of the ADPr-conjugated peptide (off-target activity) ([2]; compound at 50 µM): did not show any off-target activity
displacement of the ADPr-conjugated peptide (off-target activity) ([2]; compound at 1 mM): did not show any off-target activity
displacement of the ADPr-conjugated peptide (off-target activity) ([3]; compound at 50 µM): did not show any off-target activity
displacement of the ADPr-conjugated peptide (off-target activity) ([3]; compound at 1 mM): did not show any off-target activity
1-BDC ([4]; PanDDA event map 1-BDC, Compound_concentration 100 mM, PanDDA run dmso_34 or nohits_35 per dataset): 0.24
1-BDC (PanDDA) ([4]; PanDDA event map): 0.24
PanDDA hit? ([4]; Compound_concentration 100 mM, Echo dispense 40 nl, PanDDA run dmso_34 or nohits_35 per dataset): TRUE
Modeled? ([4]; ligand modeled in this dataset, Compound_concentration 100 mM): TRUE
Refined occupancy [4]: 48
HIT* ([4]; true hit = binding in crystallographic soaking or the HTRF-based binding assay): Y
IC50 ([5]; HTRF, Mac1, read-out: affinity): 0.43 µM
IC50 ([5]; IC50, HTRF ADPr-peptide displacement from SARS-CoV-2 Mac1): 0.4 µM
Ki ([5]; Ki estimation from HTRF-derived IC50, Cheng-Prusoff, peptide 400nM, Kd 2.68µM): 0.3 µM
improvement compared to the best starting fragment ([5]; affinity, HTRF): > 400 fold

O=C(NC1c2cccc(O)c2CC1C(=O)O)c1ccc2[nH]ccc2c1 (stereo not shown) [Z8539_2004]
HIT* [6]: Y
1-BDC [4, 7]: 0.41 and 0.22
1-BDC (PanDDA) ([4]; PanDDA event map): 0.22
Modeled? [4, 8]: TRUE
Refined occupancy [4]: 44
IC50 [5, 9]: 7.2 µM
Ki [5]: 6.3 µM

O=C(NCc1c(C(=O)O)[nH]c2ccccc12)c1ccc2[nH]cnc2c1 [Z8539_2005]
HIT* [6]: Y
1-BDC [4, 7]: 0.21 and 0.19
1-BDC (PanDDA) ([4]; PanDDA event map): 0.19
1-BDC ([4]; PanDDA event map, Compound_concentration 100 mM, Echo_dispense_volume 40 nl): 0.24
PanDDA hit? ([4]; Compound_concentration 100 mM, Echo_dispense_volume 40 nl, PanDDA run (background map) dmso_34, nohits_35 or nohits_62): TRUE
Modeled? [4, 8]: TRUE
Refined occupancy [4]: 38
IC50 [5, 9]: 24.5 µM
Ki [5]: 21.3 µM

O=C(NCc1c(C(=O)O)[nH]c2ccccc12)c1ccc2[nH]c(O)nc2c1 [Z8539_2006]
HIT* [6]: Y
1-BDC [4, 7]: 0.05
1-BDC (PanDDA) ([4]; PanDDA event map): 0.05
Modeled? [4, 8]: TRUE
Refined occupancy [4]: 10
IC50 [5, 9]: 15.8 µM
Ki [5]: 13.7 µM

O=C(Nc1ccc(C(=O)N[C@H]2c3cccc(O)c3C[C@H]2C(=O)O)cc1)NC1CC1 [Z8601]
displacement of the ADPr-conjugated peptide (off-target activity) ([2]; compound at 50 µM): no displacement
displacement of the ADPr-conjugated peptide (off-target activity) ([2]; compound at 1 mM): approximately 50%
displacement of the ADPr-conjugated peptide (off-target activity) ([3]; compound at 50 µM): no displacement
displacement of the ADPr-conjugated peptide (off-target activity) ([3]; compound at 1 mM): approximately 50%

O=C1NCCCC1Nc1ncnc(-c2ccccc2)n1 (stereo not shown) [Z9020, ZINC000884519020]
DSF max dTma [1]: 1.01 °C
